Data from PMC12457209, “Jianpi‐Huogu Prescription Repairs Nontraumatic Osteonecrosis of the Femoral Head by Inhibiting NAMPT/STK11/HMGCR/ACAT1 Axis‐Mediated Lipid Production” (Journal of Cellular and Molecular Medicine, 2025).

Each compound was assayed against T1, NMNAT1 (Nicotinamide Nucleotide Adenylyl Transferase 1) (Homo sapiens, UniProt Q9HAN9) (assay: SPR, Biacore T200, immobilised protein). Conditions: PBS, 5% DMSO, 0.5% P20, pH 7.4; compound 1.56 to 50 μM.
T1 construct: amine-coupled to CM5 chip
T1 sequence (Q9HAN9 whole entry): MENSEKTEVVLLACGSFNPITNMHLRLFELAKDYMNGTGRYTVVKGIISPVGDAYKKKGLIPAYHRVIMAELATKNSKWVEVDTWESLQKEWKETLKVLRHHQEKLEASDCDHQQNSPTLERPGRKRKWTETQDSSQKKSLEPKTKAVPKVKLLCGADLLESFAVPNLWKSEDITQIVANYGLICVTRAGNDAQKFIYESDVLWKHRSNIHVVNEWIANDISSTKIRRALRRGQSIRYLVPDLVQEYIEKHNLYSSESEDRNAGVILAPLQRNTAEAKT
Assay type: binding

SMILES | SPR, Biacore T200, immobilised protein
CCC/C=C1\OC(=O)C2=C1CC[C@@H](O)[C@H]2O [senkyunolide H] | SPR analysis confirmed direct and specific binding of these compounds to NMNAT1
Nc1nc2c(ncn2[C@@H]2O[C@H](CO)[C@@H](O)[C@H]2O)c(=O)[nH]1 [guanosine] | SPR analysis confirmed direct and specific binding of these compounds to NMNAT1
COc1cc(-c2cc(=O)c3c(O)c(O)c(OC)cc3o2)ccc1O [5,6,4′‐trihydroxy‐7,3′‐dimethoxyflavone] | SPR analysis confirmed direct and specific binding of these compounds to NMNAT1
COc1cc(/C=C/C(=O)O)ccc1O [ferulic acid] | SPR analysis confirmed direct and specific binding of these compounds to NMNAT1
